Experimental data taken from the supplement of paper PMC10307832.

Tests used:
Assay in all cases: relative viability (nuclei count vs DMSO), 5 days (fraction); higher = more cells survive
Metformin + Pictilisib = compound: CN(C)C(=N)NC(=N)N [Metformin] + CS(=O)(=O)N1CCN(Cc2cc3nc(-c4cccc5[nH]ncc45)nc(N4CCOCC4)c3s2)CC1 [Pictilisib] (partner 1 µM)
Summary of the method: (§1)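 Nuclei were stained with Hoechst during a one-step fixation (final 0.05% Triton X-100, 1% formaldehyde, 1 ug/ml Hoechst) carried out 5 days after dosing, then counted on 4× images. The cells, lung cancer lines in 1536-well plates, had been dosed by pin tool the day after seeding with one drug alone or a fixed anchor-drug dose plus five library-drug doses (not always all listed) in √10 steps. Relative viability is the nuclei count in treated wells divided by that in vehicle wells, and each value is the median of duplicate plates.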

Apatinib + OSI-027 = compound: N#CC1(c2ccc(NC(=O)c3cccnc3NCc3ccncc3)cc2)CCCC1 [Apatinib] + COc1cccc2cc(-c3nc([C@H]4CC[C@H](C(=O)O)CC4)n4ncnc(N)c34)[nH]c12 [OSI-027] (partner 0.5 µM)
Summary of the method: as §1

Apatinib + AZD7762 = compound: N#CC1(c2ccc(NC(=O)c3cccnc3NCc3ccncc3)cc2)CCCC1 [Apatinib] + NC(=O)Nc1cc(-c2cccc(F)c2)sc1C(=O)N[C@H]1CCCNC1 [AZD7762] (partner 0.2 µM)
Summary of the method: as §1

Metformin + Luminespib = compound: CN(C)C(=N)NC(=N)N [Metformin] + CCNC(=O)c1noc(-c2cc(C(C)C)c(O)cc2O)c1-c1ccc(CN2CCOCC2)cc1 [Luminespib] (partner 0.01 µM)
Summary of the method: as §1

Question: NCI-H2085 was tested. Which relative viability (Metformin + Pictilisib; first compound 10 µM) did it give?
Answer: The relative viability was 0.408.

Question: What about the relative viability (Metformin + Pictilisib; first compound 31.62 µM) of the same cell line?
Answer: The relative viability was 0.492.

Question: What about the relative viability (Metformin + Pictilisib; first compound 100 µM) of the same cell line?
Answer: The relative viability was 0.472.

Question: And the relative viability (Metformin + Pictilisib; first compound 316.23 µM)?
Answer: The relative viability was 0.439.

Question: And the relative viability (Metformin + Pictilisib; first compound 1000 µM)?
Answer: The relative viability was 0.545.

Question: And the relative viability (Apatinib + OSI-027; first compound 0.08 µM)?
Answer: The relative viability was 0.858.

Question: What about the relative viability (Apatinib + OSI-027; first compound 0.253 µM) of the same cell line?
Answer: The relative viability was 0.706.

Question: What about the relative viability (Apatinib + OSI-027; first compound 0.8 µM) of the same cell line?
Answer: Its relative viability is 0.767.

Question: And the relative viability (Apatinib + OSI-027; first compound 2.53 µM)?
Answer: The relative viability was 0.612.

Question: And the relative viability (Apatinib + OSI-027; first compound 8 µM)?
Answer: Its relative viability is 0.549.

Question: What about the relative viability (Apatinib + AZD7762; first compound 0.08 µM) of the same cell line?
Answer: Its relative viability is 0.97.

Question: What about the relative viability (Apatinib + AZD7762; first compound 0.253 µM) of the same cell line?
Answer: The relative viability was 1.

Question: What about the relative viability (Apatinib + AZD7762; first compound 0.8 µM) of the same cell line?
Answer: The relative viability was 0.925.

Question: And the relative viability (Apatinib + AZD7762; first compound 2.53 µM)?
Answer: Its relative viability is 0.846.

Question: And the relative viability (Apatinib + AZD7762; first compound 8 µM)?
Answer: The relative viability was 0.699.

Question: What about the relative viability (Metformin + Luminespib; first compound 10 µM) of the same cell line?
Answer: The relative viability was 0.429.

Question: What about the relative viability (Metformin + Luminespib; first compound 31.62 µM) of the same cell line?
Answer: The relative viability was 0.441.

Question: And the relative viability (Metformin + Luminespib; first compound 100 µM)?
Answer: Its relative viability is 0.404.

Question: And the relative viability (Metformin + Luminespib; first compound 316.23 µM)?
Answer: Its relative viability is 0.336.

Question: And the relative viability (Metformin + Luminespib; first compound 1000 µM)?
Answer: Its relative viability is 0.475.

Question: What does the source list for NCI-H441?
Answer: relative viability (Metformin + Pictilisib; first compound 10 µM): 0.527; relative viability (Metformin + Pictilisib; first compound 100 µM): 0.499; relative viability (Metformin + Pictilisib; first compound 316.23 µM): 0.394; relative viability (Metformin + Pictilisib; first compound 1000 µM): 0.589; relative viability (Apatinib + OSI-027; first compound 0.08 µM): 0.609; relative viability (Apatinib + OSI-027; first compound 0.253 µM): 0.625; relative viability (Apatinib + OSI-027; first compound 0.8 µM): 0.541; relative viability (Apatinib + OSI-027; first compound 2.53 µM): 0.436; relative viability (Apatinib + OSI-027; first compound 8 µM): 0.339; relative viability (Apatinib + AZD7762; first compound 0.08 µM): 1; relative viability (Apatinib + AZD7762; first compound 0.253 µM): 1.16; relative viability (Apatinib + AZD7762; first compound 0.8 µM): 1.05; relative viability (Apatinib + AZD7762; first compound 2.53 µM): 1.08; relative viability (Apatinib + AZD7762; first compound 8 µM): 1.06; relative viability (Metformin + Luminespib; first compound 31.62 µM): 0.241; relative viability (Metformin + Luminespib; first compound 100 µM): 0.336; relative viability (Metformin + Luminespib; first compound 316.23 µM): 0.28; relative viability (Metformin + Luminespib; first compound 1000 µM): 0.373

Question: For PC-3 [JPC-3], which relative viability (Metformin + Pictilisib; first compound 10 µM) is on record?
Answer: Its relative viability is 0.773.

Question: And the relative viability (Metformin + Pictilisib; first compound 31.62 µM)?
Answer: Its relative viability is 0.728.

Question: And the relative viability (Metformin + Pictilisib; first compound 100 µM)?
Answer: The relative viability was 0.771.

Question: And the relative viability (Metformin + Pictilisib; first compound 316.23 µM)?
Answer: Its relative viability is 0.751.

Question: What about the relative viability (Metformin + Pictilisib; first compound 1000 µM) of the same cell line?
Answer: Its relative viability is 0.709.

Question: And the relative viability (Apatinib + OSI-027; first compound 0.08 µM)?
Answer: Its relative viability is 0.747.

Question: What about the relative viability (Apatinib + OSI-027; first compound 0.253 µM) of the same cell line?
Answer: The relative viability was 0.639.

Question: And the relative viability (Apatinib + OSI-027; first compound 0.8 µM)?
Answer: The relative viability was 0.627.

Question: And the relative viability (Apatinib + OSI-027; first compound 2.53 µM)?
Answer: The relative viability was 0.517.

Question: And the relative viability (Apatinib + OSI-027; first compound 8 µM)?
Answer: The relative viability was 0.571.

Question: And the relative viability (Apatinib + AZD7762; first compound 0.253 µM)?
Answer: The relative viability was 0.745.

Question: What about the relative viability (Apatinib + AZD7762; first compound 0.8 µM) of the same cell line?
Answer: The relative viability was 0.672.

Question: And the relative viability (Apatinib + AZD7762; first compound 2.53 µM)?
Answer: The relative viability was 0.63.

Question: What about the relative viability (Apatinib + AZD7762; first compound 8 µM) of the same cell line?
Answer: Its relative viability is 0.688.

Question: And the relative viability (Metformin + Luminespib; first compound 10 µM)?
Answer: Its relative viability is 0.686.

Question: And the relative viability (Metformin + Luminespib; first compound 31.62 µM)?
Answer: The relative viability was 0.68.

Question: What about the relative viability (Metformin + Luminespib; first compound 100 µM) of the same cell line?
Answer: The relative viability was 0.73.

Question: What about the relative viability (Metformin + Luminespib; first compound 316.23 µM) of the same cell line?
Answer: Its relative viability is 0.663.

Question: What about the relative viability (Metformin + Luminespib; first compound 1000 µM) of the same cell line?
Answer: Its relative viability is 0.74.

Question: What does the source list for NCI-H1944?
Answer: relative viability (Metformin + Pictilisib; first compound 10 µM): 0.324; relative viability (Metformin + Pictilisib; first compound 31.62 µM): 0.351; relative viability (Metformin + Pictilisib; first compound 100 µM): 0.371; relative viability (Metformin + Pictilisib; first compound 316.23 µM): 0.293; relative viability (Metformin + Pictilisib; first compound 1000 µM): 0.338; relative viability (Apatinib + OSI-027; first compound 0.08 µM): 0.419; relative viability (Apatinib + OSI-027; first compound 0.253 µM): 0.387; relative viability (Apatinib + OSI-027; first compound 0.8 µM): 0.361; relative viability (Apatinib + OSI-027; first compound 2.53 µM): 0.378; relative viability (Apatinib + OSI-027; first compound 8 µM): 0.405; relative viability (Apatinib + AZD7762; first compound 0.08 µM): 0.498; relative viability (Apatinib + AZD7762; first compound 0.253 µM): 0.564; relative viability (Apatinib + AZD7762; first compound 0.8 µM): 0.477; relative viability (Apatinib + AZD7762; first compound 2.53 µM): 0.316; relative viability (Apatinib + AZD7762; first compound 8 µM): 0.285; relative viability (Metformin + Luminespib; first compound 10 µM): 0.815; relative viability (Metformin + Luminespib; first compound 31.62 µM): 0.902; relative viability (Metformin + Luminespib; first compound 100 µM): 0.895; relative viability (Metformin + Luminespib; first compound 316.23 µM): 0.725; relative viability (Metformin + Luminespib; first compound 1000 µM): 0.804

Question: CAL-12T was tested. Which relative viability (Metformin + Pictilisib; first compound 10 µM) did it give?
Answer: Its relative viability is 0.423.

Question: And the relative viability (Metformin + Pictilisib; first compound 31.62 µM)?
Answer: The relative viability was 0.511.

Question: What about the relative viability (Metformin + Pictilisib; first compound 100 µM) of the same cell line?
Answer: The relative viability was 0.527.

Question: What about the relative viability (Metformin + Pictilisib; first compound 316.23 µM) of the same cell line?
Answer: Its relative viability is 0.415.

Question: What about the relative viability (Metformin + Pictilisib; first compound 1000 µM) of the same cell line?
Answer: The relative viability was 0.518.

Question: What about the relative viability (Apatinib + OSI-027; first compound 0.08 µM) of the same cell line?
Answer: Its relative viability is 0.652.

Question: What about the relative viability (Apatinib + OSI-027; first compound 0.253 µM) of the same cell line?
Answer: Its relative viability is 0.589.

Question: What about the relative viability (Apatinib + OSI-027; first compound 0.8 µM) of the same cell line?
Answer: The relative viability was 0.52.

Question: And the relative viability (Apatinib + OSI-027; first compound 2.53 µM)?
Answer: Its relative viability is 0.366.

Question: What about the relative viability (Apatinib + OSI-027; first compound 8 µM) of the same cell line?
Answer: The relative viability was 0.272.

Question: And the relative viability (Apatinib + AZD7762; first compound 0.08 µM)?
Answer: The relative viability was 0.618.

Question: And the relative viability (Apatinib + AZD7762; first compound 0.253 µM)?
Answer: The relative viability was 0.53.

Question: What about the relative viability (Apatinib + AZD7762; first compound 0.8 µM) of the same cell line?
Answer: Its relative viability is 0.603.

Question: What about the relative viability (Apatinib + AZD7762; first compound 2.53 µM) of the same cell line?
Answer: The relative viability was 0.51.

Question: What about the relative viability (Apatinib + AZD7762; first compound 8 µM) of the same cell line?
Answer: The relative viability was 0.468.

Question: What about the relative viability (Metformin + Luminespib; first compound 10 µM) of the same cell line?
Answer: Its relative viability is 0.253.

Question: What about the relative viability (Metformin + Luminespib; first compound 31.62 µM) of the same cell line?
Answer: The relative viability was 0.775.

Question: What about the relative viability (Metformin + Luminespib; first compound 100 µM) of the same cell line?
Answer: Its relative viability is 0.447.

Question: What about the relative viability (Metformin + Luminespib; first compound 316.23 µM) of the same cell line?
Answer: The relative viability was 0.699.

Question: What about the relative viability (Metformin + Luminespib; first compound 1000 µM) of the same cell line?
Answer: Its relative viability is 0.417.
